Measured values: publication PMC7337386 (bioRxiv, 2020)
Entries after “also recorded” stand apart in the source; their conditions may differ.

Assays:
[1] = system: SARS-CoV-2 (USA_WA1/2020); assay: SARS-CoV-2 viral cytopathic effect assay; assay type: cell-based; settings: for interaction with remdesivir / interaction with remdesivir at high concentrations: in combination with remdesivir; for interaction with remdesivir / interaction with nitazoxanide: CPE assay; for interaction with nitazoxanide: in combination with nitazoxanide; for maximum rescue of CPE, drug alone: single agent
[2] = cited from earlier work; for time of peak concentration: after oral administration
[3] = healthy adults; cited from earlier work
SARS-CoV-2 = settings: single agent; cited from earlier work

Row | SMILES | interaction with remdesivir [1] | interaction with remdesivir at high concentrations [1] | time of peak concentration [2] | interaction with nitazoxanide [1] | maximum rescue of CPE, drug alone [1] | further results
1 | OC(c1cc(C(F)(F)F)nc2c(C(F)(F)F)cccc12)C1CCCCN1 (centres unmarked) [Mefloquine] | strong antagonistic effect | synergize |  |  |  | 
2 | CCNCc1cc(Nc2ccnc3cc(Cl)ccc23)ccc1O [monodesethyl-amodiaquine] |  |  | 2 h |  |  | peak concentration ([2]; after oral administration of amodiaquine): ~ 500 nM; half-life in blood plasma [2]: 220 to 432 h
3 | CCC(CC)COC(=O)[C@H](C)N[P@](=O)(OC[C@H]1O[C@@](C#N)(c2ccc3c(N)ncnn23)[C@H](O)[C@@H]1O)Oc1ccccc1 [Remdesivir] |  |  |  | significant synergy; also recorded: notable synergism | 40–60% | 
4 | CC(=O)Oc1ccccc1C(=O)Nc1ncc([N+](=O)[O-])s1 [Nitazoxanide] |  |  |  |  | 40–60% | tolerability [3]: well tolerated; toxicity (Vero E6 cells; 10 μM): ~ 20%; cytotoxicity (Vero E6 cells; concentration below 5 μM): not cytotoxic
5 | CCOC(=O)c1c(CSc2ccccc2)n(C)c2cc(Br)c(O)c(CN(C)C)c12 [Arbidol] |  | synergize |  |  |  | concentrations showing synergism with remdesivir [1]: 3 to 10 µM
6 | CCN(CC)Cc1cc(Nc2ccnc3cc(Cl)ccc23)ccc1O [Amodiaquine] | strong antagonistic effect | synergize | ≤ 0.5 h | significant synergy; also recorded: notable synergism | 40–60% | half-life [2]: ~ 3 hours; loss of potency in Calu-3 (TMPRSS2+) versus Vero E6 (SARS-CoV-2): > 10 fold
